The nature of the data set: Saturation concentration of paclitaxel in various release media (HPLC). Format: physicochemical. The method, then: Paclitaxel concentrations were then measured with a Waters 2965 series HPLC (commercially available from Waters Corporation). A 20 μL from each sample was injected into a Phenomenex ODS-2 INERTSIL (5.0 μm, 150 mm×4.6, from Phenomenex) which was maintained at about 30° C. The sample runs were conducted for about 10 minutes, with a flow rate at 0.8 mL/minute. The mobile phase included about 55% acetonitrile and 45% water (v/v). The paclitaxel was detected at a wavelength of about 230 nm with a photodiode array detector (Waters series 2996, commercially available from Waters Corporation).
A release medium, including phosphate buffered saline (PBS) with about 0.1% of a polyethoxylated fatty acid ester of sorbitan (also referred to as polysorbates, commercially available as TWEEN™ 80) (w/v) and about 0.5% sodium dodecylsulfate (SDS) (w/v) was prepared as follows. About 100 mL of 10×PBS concentrate was added to a 1 liter volumetric flask. The flask was filled to the line with Milli-Q water and stirred for about 15 minutes. To the solution, about 1 mL of TWEEN™ 80 was added and stirred with a magnetic stir bar until the TWEEN™ 80 was completely dissolved. Approximately 5 grams of sodium dodecylsulfate was then added and the solution was stirred for about 45 minutes. The pH of the solution was tested and found to be about 7.3.
The saturation concentration of paclitaxel in various release media was determined using the previously mentioned high pressure liquid chromatography method. In addition to the release media including PBS with about 0.1% TWEEN™ 80 and 0.5% Sodium Dodecyl Sulfate described above, other media were similarly tested. The additional media included PBS with about 0.1% by weight PLURAFAC® surfactant (commercially available from BASF), PBS with about 0.1% by weight TWEEN™ 80, and PBS with about 0.8% by weight Dimethyl-b-Cyclodextrin. A summary of the results is provided below in Table 1.

For `CC(=O)O[C@H]1C(=O)[C@@]2(C)[C@H]([C@H](OC(=O)c3ccccc3)[C@]3(O)C[C@H](OC(=O)[C@H](O)[C@@H](NC(=O)c4ccccc4)c4ccccc4)C(C)=C1C3(C)C)[C@]1(OC(C)=O)CO[C@@H]1C[C@@H]2O` [Paclitaxel, paclitaxel], the “Saturation concentration of Paclitaxel” value is 0.1 ± .01 µg/mL (Media: PBS w/0.1% Plurafac); 2.2 ± 0.2 µg/mL (Media: PBS w/0.1% TWEEN 80); 52.8 ± 6.4 µg/mL (Media: PBS w/0.1% TWEEN 80 and 0.5% Sodium Dodecyl Sulfate); 7.3 µg/mL (Media: PBS w/0.8% Dimethyl-b-Cyclodextrin).

Source of the values: patent US20100076489A1, “WOUND CLOSURE MATERIAL” (priority 2007, published 2010).
